Converted amounts (≈) assume the structure as drawn.
Legend:
[1] = tested on: Staphylococcus aureus ATCC 29213; settings: S.aureus, cited from earlier work
[2] = tested on: Enterococcus faecalis (ATCC 29212); test: Glucose consumption susceptibility test, blood culture diluted in MHB with glucose (Example 1); type: cell-based; design: glucose concentration, t = 0 / glucose concentration, t = 60 / glucose concentration, t = 120 / glucose concentration, t = 180 / glucose concentration, t = 240 / dC/dT (rate of change in glucose concentration): unit not given here; settings: E. faecalis; for glucose concentration, t = 0: 0 minutes; for glucose concentration, t = 60: 60 minutes; for glucose concentration, t = 120: 120 minutes; for glucose concentration, t = 180: 180 minutes; for glucose concentration, t = 240: 240 minutes
Experimental: (§1) Strains of Escherichia coli (ATCC 25922), Enterococcus faecalis (ATCC 29212) and Staphylococcus aureus (ATCC 29213) were inoculated in blood culture bottles (SVA, Uppsala, Sweden) and cultivated according to the manufacturer's instructions until positive.
(§2) Medium from each blood culture bottle was diluted 1:100 with cation adjusted Mueller-Hinton broth (SVA, Uppsala, Sweden) supplemented with glucose to a concentration of 1.0 mg/mL.
(§3) Glucose concentrations were measured at 0, 60, 120, 180, and 240 minutes using a WaveSense Jazz glucometer (AgaMatrix, Inc., Salem, N.H., USA) with accompanying test strips.
(§4) Susceptibility scores corresponding to MIC values were calculated as described above. A 80% threshold was applied, i.e. the lowest concentration of antibiotic that entailed a rate of change in glucose concentration that was equal to or less than 80% of the reference was selected as the Minimal Inhibitory Concentration. The rate of change was calculated between the measurements at 60 and 180 minutes.

[3] = tested on: Staphylococcus aureus (ATCC 29213); test: as above; type: cell-based; design: glucose concentration, t = 0 / glucose concentration, t = 60 / glucose concentration, t = 120 / glucose concentration, t = 180 / glucose concentration, t = 240 / dC/dT (rate of change in glucose concentration): unit not given here; settings: for F = the rate of change in glucose concentration in relation to the reference / dC/dT (rate of change in glucose concentration) / glucose concentration, t = 0 / glucose concentration, t = 60 / glucose concentration, t = 120 / glucose concentration, t = 180 / glucose concentration, t = 240: S. aureus; for glucose concentration, t = 0: 0 minutes; for glucose concentration, t = 60: 60 minutes; for glucose concentration, t = 120: 120 minutes; for glucose concentration, t = 180: 180 minutes; for glucose concentration, t = 240: 240 minutes
Experimental: as §1, §2, §3, §4

CO[C@@]1(NC(=O)Cc2cccs2)C(=O)N2C(C(=O)O)=C(COC(N)=O)CS[C@@H]21 [Cefoxitin, cefoxitin]
MIC, EUCAST, range in parentheses ([1]; range obtained by EUCAST from ISO 20776-1: 2006): (1-4) ug/mL
MIC, EUCAST ([1]; reference value, Mueller-Hinton agar, incubation 18±2 h): 2 µg/mL (≈ 4.68 µM)
F = the rate of change in glucose concentration in relation to the reference ([2]; antibiotic 0.25 μg/mL): 93%
dC/dT (rate of change in glucose concentration) ([2]; antibiotic 0.25 μg/mL): 34
glucose concentration, t = 0 ([2]; antibiotic 0.25 μg/mL): 151
glucose concentration, t = 60 ([2]; antibiotic 0.25 μg/mL): 155
glucose concentration, t = 120 ([2]; antibiotic 0.25 μg/mL): 138
glucose concentration, t = 180 ([2]; antibiotic 0.25 μg/mL): 88
glucose concentration, t = 240 ([2]; antibiotic 0.25 μg/mL): 34
F = the rate of change in glucose concentration in relation to the reference ([2]; antibiotic 0.5 μg/mL): 88%
dC/dT (rate of change in glucose concentration) ([2]; antibiotic 0.5 μg/mL): 32
glucose concentration, t = 0 ([2]; antibiotic 0.5 μg/mL): 145
glucose concentration, t = 60 ([2]; antibiotic 0.5 μg/mL): 150
glucose concentration, t = 120 ([2]; antibiotic 0.5 μg/mL): 144
glucose concentration, t = 180 ([2]; antibiotic 0.5 μg/mL): 87
glucose concentration, t = 240 ([2]; antibiotic 0.5 μg/mL): 32
F = the rate of change in glucose concentration in relation to the reference ([2]; antibiotic 1 μg/mL): 85%
dC/dT (rate of change in glucose concentration) ([2]; antibiotic 1 μg/mL): 31
glucose concentration, t = 0 ([2]; antibiotic 1 μg/mL): 148
glucose concentration, t = 60 ([2]; antibiotic 1 μg/mL): 159
glucose concentration, t = 120 ([2]; antibiotic 1 μg/mL): 142
glucose concentration, t = 180 ([2]; antibiotic 1 μg/mL): 98
glucose concentration, t = 240 ([2]; antibiotic 1 μg/mL): 31
F = the rate of change in glucose concentration in relation to the reference ([2]; antibiotic 2 μg/mL): 99%
dC/dT (rate of change in glucose concentration) ([2]; antibiotic 2 μg/mL): 36
glucose concentration, t = 0 ([2]; antibiotic 2 μg/mL): 149
glucose concentration, t = 60 ([2]; antibiotic 2 μg/mL): 169
glucose concentration, t = 120 ([2]; antibiotic 2 μg/mL): 145
glucose concentration, t = 180 ([2]; antibiotic 2 μg/mL): 98
glucose concentration, t = 240 ([2]; antibiotic 2 μg/mL): 36
F = the rate of change in glucose concentration in relation to the reference ([2]; antibiotic 4 μg/mL): 74%
dC/dT (rate of change in glucose concentration) ([2]; antibiotic 4 μg/mL): 27
glucose concentration, t = 0 ([2]; antibiotic 4 μg/mL): 150
glucose concentration, t = 60 ([2]; antibiotic 4 μg/mL): 159
glucose concentration, t = 120 ([2]; antibiotic 4 μg/mL): 146
glucose concentration, t = 180 ([2]; antibiotic 4 μg/mL): 106
glucose concentration, t = 240 ([2]; antibiotic 4 μg/mL): 27
F = the rate of change in glucose concentration in relation to the reference ([2]; antibiotic 8 μg/mL): 63%
dC/dT (rate of change in glucose concentration) ([2]; antibiotic 8 μg/mL): 23
glucose concentration, t = 0 ([2]; antibiotic 8 μg/mL): 144
glucose concentration, t = 60 ([2]; antibiotic 8 μg/mL): 149
glucose concentration, t = 120 ([2]; antibiotic 8 μg/mL): 147
glucose concentration, t = 180 ([2]; antibiotic 8 μg/mL): 104
glucose concentration, t = 240 ([2]; antibiotic 8 μg/mL): 23
F = the rate of change in glucose concentration in relation to the reference ([2]; antibiotic 16 μg/mL): 68%
dC/dT (rate of change in glucose concentration) ([2]; antibiotic 16 μg/mL): 25
glucose concentration, t = 0 ([2]; antibiotic 16 μg/mL): 148
glucose concentration, t = 60 ([2]; antibiotic 16 μg/mL): 154
glucose concentration, t = 120 ([2]; antibiotic 16 μg/mL): 148
glucose concentration, t = 180 ([2]; antibiotic 16 μg/mL): 105
glucose concentration, t = 240 ([2]; antibiotic 16 μg/mL): 25
F = the rate of change in glucose concentration in relation to the reference ([2]; antibiotic 32 μg/mL): 74%
dC/dT (rate of change in glucose concentration) ([2]; antibiotic 32 μg/mL): 27
glucose concentration, t = 0 ([2]; antibiotic 32 μg/mL): 148
glucose concentration, t = 60 ([2]; antibiotic 32 μg/mL): 155
glucose concentration, t = 120 ([2]; antibiotic 32 μg/mL): 140
glucose concentration, t = 180 ([2]; antibiotic 32 μg/mL): 102
glucose concentration, t = 240 ([2]; antibiotic 32 μg/mL): 27
MIC ([2]; Enterococcus faecalis, ATCC29212, 80% threshold, disregarded as rate of decrease was higher at 32 μg/mL, read-out: MIC value initially obtained (disregarded)): 4 µg/mL (≈ 9.36 µM)
F = the rate of change in glucose concentration in relation to the reference ([3]; antibiotic 0.25 μg/mL): 91%
dC/dT (rate of change in glucose concentration) ([3]; antibiotic 0.25 μg/mL): 31
glucose concentration, t = 0 ([3]; antibiotic 0.25 μg/mL): 143
glucose concentration, t = 60 ([3]; antibiotic 0.25 μg/mL): 152
glucose concentration, t = 120 ([3]; antibiotic 0.25 μg/mL): 132
glucose concentration, t = 180 ([3]; antibiotic 0.25 μg/mL): 91
glucose concentration, t = 240 ([3]; antibiotic 0.25 μg/mL): 33
F = the rate of change in glucose concentration in relation to the reference ([3]; antibiotic 0.5 μg/mL): 96%
dC/dT (rate of change in glucose concentration) ([3]; antibiotic 0.5 μg/mL): 32
glucose concentration, t = 0 ([3]; antibiotic 0.5 μg/mL): 144
glucose concentration, t = 60 ([3]; antibiotic 0.5 μg/mL): 155
glucose concentration, t = 120 ([3]; antibiotic 0.5 μg/mL): 130
glucose concentration, t = 180 ([3]; antibiotic 0.5 μg/mL): 91
glucose concentration, t = 240 ([3]; antibiotic 0.5 μg/mL): 32
F = the rate of change in glucose concentration in relation to the reference ([3]; antibiotic 1 μg/mL): 82%
dC/dT (rate of change in glucose concentration) ([3]; antibiotic 1 μg/mL): 28
glucose concentration, t = 0 ([3]; antibiotic 1 μg/mL): 147
glucose concentration, t = 60 ([3]; antibiotic 1 μg/mL): 155
glucose concentration, t = 120 ([3]; antibiotic 1 μg/mL): 133
glucose concentration, t = 180 ([3]; antibiotic 1 μg/mL): 100
glucose concentration, t = 240 ([3]; antibiotic 1 μg/mL): 40
F = the rate of change in glucose concentration in relation to the reference ([3]; antibiotic 2 μg/mL): 72%
dC/dT (rate of change in glucose concentration) ([3]; antibiotic 2 μg/mL): 24
glucose concentration, t = 0 ([3]; antibiotic 2 μg/mL): 141
glucose concentration, t = 60 ([3]; antibiotic 2 μg/mL): 146
glucose concentration, t = 120 ([3]; antibiotic 2 μg/mL): 143
glucose concentration, t = 180 ([3]; antibiotic 2 μg/mL): 98
glucose concentration, t = 240 ([3]; antibiotic 2 μg/mL): 61
F = the rate of change in glucose concentration in relation to the reference ([3]; antibiotic 4 μg/mL): 16%
dC/dT (rate of change in glucose concentration) ([3]; antibiotic 4 μg/mL): 6
glucose concentration, t = 0 ([3]; antibiotic 4 μg/mL): 142
glucose concentration, t = 60 ([3]; antibiotic 4 μg/mL): 150
glucose concentration, t = 120 ([3]; antibiotic 4 μg/mL): 143
glucose concentration, t = 180 ([3]; antibiotic 4 μg/mL): 139
glucose concentration, t = 240 ([3]; antibiotic 4 μg/mL): 139
F = the rate of change in glucose concentration in relation to the reference ([3]; antibiotic 8 μg/mL): 24%
dC/dT (rate of change in glucose concentration) ([3]; antibiotic 8 μg/mL): 8
glucose concentration, t = 0 ([3]; antibiotic 8 μg/mL): 136
glucose concentration, t = 60 ([3]; antibiotic 8 μg/mL): 157
glucose concentration, t = 120 ([3]; antibiotic 8 μg/mL): 160
glucose concentration, t = 180 ([3]; antibiotic 8 μg/mL): 141
glucose concentration, t = 240 ([3]; antibiotic 8 μg/mL): 149
F = the rate of change in glucose concentration in relation to the reference ([3]; antibiotic 16 μg/mL): 22%
dC/dT (rate of change in glucose concentration) ([3]; antibiotic 16 μg/mL): 8
glucose concentration, t = 0 ([3]; antibiotic 16 μg/mL): 140
glucose concentration, t = 60 ([3]; antibiotic 16 μg/mL): 157
glucose concentration, t = 120 ([3]; antibiotic 16 μg/mL): 152
glucose concentration, t = 180 ([3]; antibiotic 16 μg/mL): 142
glucose concentration, t = 240 ([3]; antibiotic 16 μg/mL): 142
F = the rate of change in glucose concentration in relation to the reference ([3]; antibiotic 32 μg/mL): 27%
dC/dT (rate of change in glucose concentration) ([3]; antibiotic 32 μg/mL): 9
glucose concentration, t = 0 ([3]; antibiotic 32 μg/mL): 145
glucose concentration, t = 60 ([3]; antibiotic 32 μg/mL): 154
glucose concentration, t = 120 ([3]; antibiotic 32 μg/mL): 145
glucose concentration, t = 180 ([3]; antibiotic 32 μg/mL): 136
glucose concentration, t = 240 ([3]; antibiotic 32 μg/mL): 139
MIC ([3]; Staphylococcus aureus, ATCC29213, S.aureus, 80% threshold of reference rate of change, 60 to 180 minutes, read-out: MIC, Measured): 2 µg/mL (≈ 4.68 µM)
